Reference: patent US20110160184A1, “Dibenzothiazepine Derivatives and Use Thereof” (ASTRAZENECA AB, priority 2008, published 2011)
Like-named read-outs stand apart in the source and are kept apart here.

Tests used:
[1] = molecular target: T1, dopamine D2s receptor (Homo sapiens, UniProt P14416); test: D2 receptor binding assay (3H-raclopride displacement, membranes from D2s-transfected CHO cells)
T1 construct: expressed in transfected cells; membranes used
Method: (§1) In vitro experimental assays can generally be carried out as described herein. Briefly, CHO-K1 cells stably transfected with the dopamine D2s receptor can be used in the experiments and maintained in Ham's F12 culture medium supplemented with 2 mM L-glutamine, 10% FBS, and 500 μg/ml Hygromycin.
The ability of test compounds to displace ^3H-raclopride at the D2s receptor can be determined on membranes from D2s-transfected CHO cells (Bmax 13 pmol/mg protein). An assay can use a standard 96-well glass-fiber filter plate to retain radioligand bound by the receptor. Retained ^3H can be determined in a TopCount scintillation plate counter following the addition of a liquid scintillant to each well. Compounds can be evaluated for their potency using competition curve analysis, resulting in calculated Ki values.

[2] = molecular target: T1, dopamine D2s receptor; test: D2 receptor in vitro functional GTPγS assay (block of dopamine-stimulated [35S]-GTPγS binding); type: biochemical
Method: as §1
GTPgS assay can be performed substantially as described by Lazareno, Methods in Molecular Biology, 1999, 106, 231-245. Antagonist activity of compounds can be determined by the ability of test compounds to block dopamine-stimulated [^35S]-GTPγS binding to cell membranes from D2s stably-transfected CHO cells.

[3] = molecular target: T2, human norepinephrine transporter (Homo sapiens, UniProt P23975); test: Norepinephrine uptake (fluorescent substrate, HEK293F cells); type: cell-based
T2 construct: expressed in transfected cells
T2 sequence (P23975 whole entry): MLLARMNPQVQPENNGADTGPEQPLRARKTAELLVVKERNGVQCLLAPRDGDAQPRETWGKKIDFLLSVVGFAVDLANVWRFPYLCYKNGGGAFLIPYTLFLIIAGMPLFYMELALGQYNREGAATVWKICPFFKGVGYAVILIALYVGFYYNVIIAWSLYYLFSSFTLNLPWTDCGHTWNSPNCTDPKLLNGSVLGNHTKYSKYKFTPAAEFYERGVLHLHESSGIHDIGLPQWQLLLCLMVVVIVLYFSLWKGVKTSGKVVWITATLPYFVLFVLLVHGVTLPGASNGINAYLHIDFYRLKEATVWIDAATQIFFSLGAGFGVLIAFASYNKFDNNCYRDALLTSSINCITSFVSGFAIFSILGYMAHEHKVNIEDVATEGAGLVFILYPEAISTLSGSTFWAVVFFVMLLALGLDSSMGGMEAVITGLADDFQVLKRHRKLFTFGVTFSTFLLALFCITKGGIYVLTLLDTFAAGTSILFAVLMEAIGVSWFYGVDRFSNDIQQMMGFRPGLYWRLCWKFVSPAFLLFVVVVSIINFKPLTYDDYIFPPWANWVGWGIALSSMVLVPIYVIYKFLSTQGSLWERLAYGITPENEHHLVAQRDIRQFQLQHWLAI
Method: An assay for measuring norepinephrine uptake can be carried out as described below. Briefly, test compounds can be evaluated in an 11-point IC50 curve for their ability to inhibit uptake of a proprietary fluorescent substrate (dye) from Molecular Devices that mimics biogenic amine neurotransmitters. A stable population of HEK293F cells transfected with the human norepinephrine transporter (cultured in Freestyle 293 expression medium with […] hygromycin B) can be cryopreserved, then plated and used on the day of the assay. Cells can be at 60 K/well; dye can be 7% (final) of the vendor-recommended reconstitution volume (100%). Compounds can be diluted 1:20 in buffer and incubated with the cells for 30 minutes prior to addition of the dye. In this fluorescence intensity assay, plates can be read after a 20 minute dye incubation to determine percent effect with respect to total signal (0.5% DMSO, final) and background signal (10 μM desipramine, final). The IC50, half of the control response, can be converted to Ki using the using the standard Cheng-Prusoff equation.

[4] = molecular target: H1 receptor (Homo sapiens, UniProt P35367); test: H1 receptor binding; settings: read-out: H1 Hu Bind Mean Ki
H1 receptor, sequence (P35367 whole entry): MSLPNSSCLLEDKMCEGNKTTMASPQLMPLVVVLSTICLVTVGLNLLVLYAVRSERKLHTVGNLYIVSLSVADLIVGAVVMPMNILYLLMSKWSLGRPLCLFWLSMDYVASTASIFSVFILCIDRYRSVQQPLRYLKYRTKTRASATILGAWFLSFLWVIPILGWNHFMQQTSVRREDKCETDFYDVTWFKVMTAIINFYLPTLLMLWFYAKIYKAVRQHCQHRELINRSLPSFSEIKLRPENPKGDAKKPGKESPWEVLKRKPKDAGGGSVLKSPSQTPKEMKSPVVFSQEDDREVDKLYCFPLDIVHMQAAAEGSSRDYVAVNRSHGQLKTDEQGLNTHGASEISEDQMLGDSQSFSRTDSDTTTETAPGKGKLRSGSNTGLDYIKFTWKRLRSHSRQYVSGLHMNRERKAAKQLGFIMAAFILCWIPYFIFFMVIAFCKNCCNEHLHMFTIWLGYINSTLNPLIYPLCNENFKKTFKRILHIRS
Text: H1 Receptor Binding The H1 receptor binding method can be carried out in accordance with De Backer et al., Biochem. Biophys. Res. Commun, 1993, 197(3), 1601.

[5] = tested on: D-Amphetamine-induced Hyperlocomotor Activity; test: D-Amphetamine-induced hyperlocomotor activity (LMA) in habituated rat model; type: in vivo, male Long Evans rats; settings: D-amphetamine 1 mg/kg s.c.
Method: Studies in vivo can be used to determine the antipsychotic effect and are generally carried out as follows. Briefly, D-Amphetamine-induced Hyperlocomotor Activity (LMA) in a Habituated Rat Model can be assessed in male Long Evans rats using a paradigm that includes a habituation phase followed by administration of 1 mg/kg D-amphetamine. Animals can be allowed to acclimatize to the testing room for 1 hour before being weighed and placed into activity chambers. Thirty minutes after LMA measurement is begun, animals can be briefly removed, dosed via the sub-cutaneous route (s.c.) with vehicle or test drug at different doses and returned to the chambers. After a further 30 minutes, animals can again be removed and dosed with vehicle or D-amphetamine at 1 mg/kg (s.c.). After returning the animals to the activity chambers, LMA can be assessed for a further 60 minutes. Haloperidol (0.1 mg/kg dissolved in H2O) can be administered 15 minutes prior to D-amphetamine via the s.c. route. Statistical analysis can be made of total distance traveled after D-amphetamine administration using ANOVA and Tukey's post hoc analysis where appropriate. All values can be expressed as Mean and SD.

[6] = tested on: Conditioned Avoidance Responding; test: Conditioned avoidance responding (CAR) assay; type: in vivo, Male Long-Evans rats; settings: rat
Method: Male Long-Evans rats can be trained to traverse to the opposite side of a standard shuttle cage following presentation of an auditory and visual stimulus to avoid delivery of electric shock to the floor of the cage. Daily sessions can consist of up to 80 trials. If a shock is delivered, animals have the opportunity to escape the shock by traversing to the opposite side of the cage. Drug can be administered (via s.c. or p.o. route) 60 minutes prior to testing and the percentage of trials in which shock is avoided and escaped can be recorded.

[7] = w/NaCl, read-out: D2 binding w/NaCl Ki
[8] = antagonist mode, read-out: D2 Ant GTPγS IC50
[9] = HEK cells, fluorescence intensity, read-out: hNET uptake HEK FLInt CR Mean Ki

T1 sequence (P14416 1-414 isoform P14416-2): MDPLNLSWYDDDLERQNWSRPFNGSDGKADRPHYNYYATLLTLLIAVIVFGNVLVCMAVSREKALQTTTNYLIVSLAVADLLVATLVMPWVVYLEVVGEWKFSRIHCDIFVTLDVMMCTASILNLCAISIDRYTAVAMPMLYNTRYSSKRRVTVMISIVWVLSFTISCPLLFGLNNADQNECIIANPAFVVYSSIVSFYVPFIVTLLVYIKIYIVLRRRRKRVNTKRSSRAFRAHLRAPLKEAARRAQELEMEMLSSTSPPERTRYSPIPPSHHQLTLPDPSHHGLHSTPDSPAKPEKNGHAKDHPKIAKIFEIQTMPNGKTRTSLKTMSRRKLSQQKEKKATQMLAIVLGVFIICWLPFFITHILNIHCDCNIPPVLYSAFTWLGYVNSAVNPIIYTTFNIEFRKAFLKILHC

Compound	Ki [1, 7] [nM]	IC50 [2, 8] [nM]	Ki [3, 9] [nM]	Ki [4] [nM]	Ki ([1]; 3H-raclopride, D2s-transfected CHO cell membranes, one average result, read-out: D2 binding Ki) [nM]	IC50 ([2]; antagonist, dopamine-stimulated [35S]-GTPγS binding, D2s CHO membranes, one average result, read-out: GTPγS IC50) [nM]	Ki ([3]; HEK293F cells with human NET, Cheng-Prusoff from IC50, one average result, read-out: NET inhibition Ki) [nM]	activity in D-amphetamine-induced LMA ([5]; 30 mg/kg (sc))	activity in D-amphetamine-induced LMA ([5]; 60 mg/kg (sc))	activity in conditioned avoidance responding ([6]; 30 mg/kg (sc))	activity in conditioned avoidance responding ([6]; 60 mg/kg (sc))
CN1CCN(C2=Nc3ccccc3Sc3ccc(F)cc32)CC1 [2-Fluoro-11-(4-methyl-piperazin-1-yl)-dibenzo[b,f][1,4]thiazepine]	1.1	170	59	1.82							
c1ccc2c(c1)N=C(N1CCNCC1)c1ccccc1S2 [11-Piperazin-1-yl-dibenzo[b,f][1,4]thiazepine]	37	800	24	3.33							
Fc1ccc2c(c1)C(N1CCNCC1)=Nc1ccccc1S2 [Example 1, 2-fluoro-11-(piperazin-1-yl)dibenzo[b,f][1,4]thiazepine]	11	400	9.6		~11	~404	~10	showed activity	showed activity	showed activity	showed activity

Now those with a lower Ki [1, 7], led by results:

Ki [1, 7] [nM]	IC50 [2, 8] [nM]	Ki [3, 9] [nM]	Ki [4] [nM]	Ki ([1]; 3H-raclopride, D2s-transfected CHO cell membranes, one average result, read-out: D2 binding Ki) [nM]	IC50 ([2]; antagonist, dopamine-stimulated [35S]-GTPγS binding, D2s CHO membranes, one average result, read-out: GTPγS IC50) [nM]	Ki ([3]; HEK293F cells with human NET, Cheng-Prusoff from IC50, one average result, read-out: NET inhibition Ki) [nM]	Compound	activity in D-amphetamine-induced LMA ([5]; 30 mg/kg (sc))	activity in D-amphetamine-induced LMA ([5]; 60 mg/kg (sc))	activity in conditioned avoidance responding ([6]; 30 mg/kg (sc))	activity in conditioned avoidance responding ([6]; 60 mg/kg (sc))
0.7	35	41	3.87				Clc1ccc2c(c1)C(N1CCNCC1)=Nc1ccccc1S2 [2-Chloro-11-piperazin-1-yl-dibenzo[b,f][1,4]thiazepine]				
0.49	8.4						CN1CCN(C2=Nc3ccccc3Sc3ccc(Cl)cc32)CC1 [2-Chloro-11-(4-methyl-piperazin-1-yl)-dibenzo[b,f][1,4]thiazepine]				
